Earlier results on one molecule are cited in publication PMC4447334 (Journal of the American Chemical Society, 2015).

Usually IC50 stands for the point on the concentration scale where inhibition reaches its midpoint.

The structures appear in SMILES notation.

For one series, the target named is PAD4 (Homo sapiens, UniProt Q9UM07). Particulars: approximate, from chart in Figure 6A.
The target in another series is T1, PAD1 (Homo sapiens, UniProt Q9ULC6).
T1 sequence (Q9ULC6 1-663): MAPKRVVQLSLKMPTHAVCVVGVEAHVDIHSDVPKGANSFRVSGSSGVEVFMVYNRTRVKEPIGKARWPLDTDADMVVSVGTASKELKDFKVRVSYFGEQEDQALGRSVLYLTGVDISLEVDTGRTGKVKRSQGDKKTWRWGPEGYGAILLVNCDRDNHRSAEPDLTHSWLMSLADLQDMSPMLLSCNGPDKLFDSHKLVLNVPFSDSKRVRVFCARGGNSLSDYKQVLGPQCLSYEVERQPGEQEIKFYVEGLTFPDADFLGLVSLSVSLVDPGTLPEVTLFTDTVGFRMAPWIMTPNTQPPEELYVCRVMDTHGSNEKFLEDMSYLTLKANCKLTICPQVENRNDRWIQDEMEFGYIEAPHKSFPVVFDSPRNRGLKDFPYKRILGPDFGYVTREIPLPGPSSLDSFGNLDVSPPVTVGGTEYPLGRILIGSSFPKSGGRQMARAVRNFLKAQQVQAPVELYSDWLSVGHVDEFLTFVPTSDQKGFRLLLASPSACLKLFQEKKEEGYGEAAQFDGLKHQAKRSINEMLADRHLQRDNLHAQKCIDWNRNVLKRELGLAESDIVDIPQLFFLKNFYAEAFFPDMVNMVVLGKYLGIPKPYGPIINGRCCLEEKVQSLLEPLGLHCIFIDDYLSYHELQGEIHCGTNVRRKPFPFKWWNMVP
Particulars: approximate, from chart in Figure 6A.

The target of the next series is T2, PAD3 (Homo sapiens, UniProt Q9ULW8).
T2 sequence (Q9ULW8 1-664): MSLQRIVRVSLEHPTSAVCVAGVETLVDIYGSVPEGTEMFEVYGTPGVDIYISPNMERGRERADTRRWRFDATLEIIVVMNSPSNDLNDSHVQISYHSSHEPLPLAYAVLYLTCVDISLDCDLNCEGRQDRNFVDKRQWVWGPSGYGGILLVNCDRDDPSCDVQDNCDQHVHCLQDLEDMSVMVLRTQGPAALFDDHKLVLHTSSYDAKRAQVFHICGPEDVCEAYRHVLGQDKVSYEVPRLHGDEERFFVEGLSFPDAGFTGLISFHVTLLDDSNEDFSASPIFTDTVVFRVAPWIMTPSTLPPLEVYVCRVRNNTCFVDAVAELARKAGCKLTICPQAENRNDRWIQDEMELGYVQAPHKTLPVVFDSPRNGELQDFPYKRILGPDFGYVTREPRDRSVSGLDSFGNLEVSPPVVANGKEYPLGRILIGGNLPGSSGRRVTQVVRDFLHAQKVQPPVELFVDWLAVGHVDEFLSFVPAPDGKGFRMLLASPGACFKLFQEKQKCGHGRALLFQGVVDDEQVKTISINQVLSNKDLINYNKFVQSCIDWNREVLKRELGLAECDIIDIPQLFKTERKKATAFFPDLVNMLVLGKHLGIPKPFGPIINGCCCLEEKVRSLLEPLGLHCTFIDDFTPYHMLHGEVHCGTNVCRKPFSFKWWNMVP
Particulars: exact value reported.

Sequence of PAD4 (Q9UM07 whole entry): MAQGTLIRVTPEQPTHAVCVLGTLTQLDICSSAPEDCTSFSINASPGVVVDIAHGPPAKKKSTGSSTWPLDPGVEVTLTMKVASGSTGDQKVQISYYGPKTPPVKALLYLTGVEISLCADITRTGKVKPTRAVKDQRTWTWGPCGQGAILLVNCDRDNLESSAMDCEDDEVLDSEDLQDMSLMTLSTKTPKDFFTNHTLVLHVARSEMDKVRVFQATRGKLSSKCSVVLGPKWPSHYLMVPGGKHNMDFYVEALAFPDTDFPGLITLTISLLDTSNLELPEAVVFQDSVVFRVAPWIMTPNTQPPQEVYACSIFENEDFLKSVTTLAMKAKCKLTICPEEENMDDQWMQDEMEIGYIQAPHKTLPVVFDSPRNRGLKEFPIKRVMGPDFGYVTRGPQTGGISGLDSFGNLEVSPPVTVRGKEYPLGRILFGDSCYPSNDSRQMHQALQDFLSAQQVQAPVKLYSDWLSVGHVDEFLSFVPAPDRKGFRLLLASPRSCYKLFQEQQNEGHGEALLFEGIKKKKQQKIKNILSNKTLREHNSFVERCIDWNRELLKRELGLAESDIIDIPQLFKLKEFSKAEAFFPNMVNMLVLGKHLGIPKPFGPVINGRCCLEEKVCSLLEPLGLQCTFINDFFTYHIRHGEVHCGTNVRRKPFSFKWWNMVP

Regarding `N=C(CF)NCCCC[C@H](NC(=O)c1ccccc1)C(N)=O` [F4-amidine], the 50% inhibitory concentration (IC50) was around 625 µM on PAD4, around 250 µM on PAD1 and 65 µM at PAD3.
